Publication PMC4685510, “A Cell Biologist’s Field Guide to Aurora Kinase Inhibitors” (Frontiers in Oncology, 2015)

Key:
Test in all cases: biochemical
Assay type in all cases: biochemical
[1] = molecular target: T1, 363 human kinases (including Aurora A/B/C) (Homo sapiens, UniProt O14733); details: MKK7; for remaining activity at 0.1 µM: 100 nM; for remaining activity at 0.1 µM / remaining activity at 0.5 µM: read-out: % Enzyme Activity (relative to DMSO controls)
T1 sequence (O14733 1-419): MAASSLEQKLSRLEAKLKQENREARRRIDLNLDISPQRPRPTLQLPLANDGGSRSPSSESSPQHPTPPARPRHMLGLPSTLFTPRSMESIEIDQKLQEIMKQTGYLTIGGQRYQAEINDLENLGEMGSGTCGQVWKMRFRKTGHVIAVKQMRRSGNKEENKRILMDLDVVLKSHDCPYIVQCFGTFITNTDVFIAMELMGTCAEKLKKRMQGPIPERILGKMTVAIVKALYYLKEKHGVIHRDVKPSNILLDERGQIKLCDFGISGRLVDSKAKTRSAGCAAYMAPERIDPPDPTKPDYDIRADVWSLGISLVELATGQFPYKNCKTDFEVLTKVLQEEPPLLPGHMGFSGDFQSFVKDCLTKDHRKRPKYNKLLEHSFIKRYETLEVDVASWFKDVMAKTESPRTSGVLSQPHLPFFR
Excerpt: (§1) However, the Aurora A/B selectivity ratios derived from our in vitro and in vivo data can be compared to prioritize inhibitors.

[2] = molecular target: 363 human kinases (including Aurora A/B/C) (Homo sapiens, UniProt O95747); details: OSR1/OXSR1; for remaining activity at 0.1 µM: 100 nM
Excerpt: as §1

[3] = molecular target: T2, 363 human kinases (including Aurora A/B/C) (Homo sapiens, UniProt Q12866); details: c-MER, [ATP] 30 µM; for remaining activity at 0.1 µM: 100 nM; for remaining activity at 0.1 µM / remaining activity at 0.5 µM: read-out: % Enzyme Activity (relative to DMSO controls)
T2 sequence (Q12866 21-999): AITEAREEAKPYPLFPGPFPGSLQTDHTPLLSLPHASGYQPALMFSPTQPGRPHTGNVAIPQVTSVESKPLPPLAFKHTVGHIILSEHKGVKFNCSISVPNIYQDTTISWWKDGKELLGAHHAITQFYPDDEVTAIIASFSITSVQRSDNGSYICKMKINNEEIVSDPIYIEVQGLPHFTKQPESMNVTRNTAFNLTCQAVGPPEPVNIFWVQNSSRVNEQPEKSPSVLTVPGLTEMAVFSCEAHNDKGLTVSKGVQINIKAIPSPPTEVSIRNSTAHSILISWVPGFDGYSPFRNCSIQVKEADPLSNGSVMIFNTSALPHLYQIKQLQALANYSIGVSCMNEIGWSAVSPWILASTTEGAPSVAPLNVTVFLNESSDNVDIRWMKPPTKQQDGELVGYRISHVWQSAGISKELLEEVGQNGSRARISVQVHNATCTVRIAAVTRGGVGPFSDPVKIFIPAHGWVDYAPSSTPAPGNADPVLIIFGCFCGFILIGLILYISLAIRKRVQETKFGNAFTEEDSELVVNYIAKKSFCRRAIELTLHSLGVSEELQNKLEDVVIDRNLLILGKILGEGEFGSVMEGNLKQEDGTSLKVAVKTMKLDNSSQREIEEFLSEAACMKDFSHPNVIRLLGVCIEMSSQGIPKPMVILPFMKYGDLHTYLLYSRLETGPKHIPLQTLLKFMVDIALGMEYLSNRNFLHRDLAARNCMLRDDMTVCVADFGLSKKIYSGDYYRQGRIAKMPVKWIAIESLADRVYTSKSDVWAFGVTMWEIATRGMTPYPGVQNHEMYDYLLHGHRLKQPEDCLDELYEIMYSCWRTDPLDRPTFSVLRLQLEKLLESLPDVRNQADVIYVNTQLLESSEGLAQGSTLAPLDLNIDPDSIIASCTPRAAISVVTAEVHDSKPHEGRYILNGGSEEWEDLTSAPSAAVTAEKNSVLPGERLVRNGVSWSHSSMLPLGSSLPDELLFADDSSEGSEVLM
Excerpt: as §1

[4] = molecular target: 363 human kinases (including Aurora A/B/C) (Homo sapiens, UniProt Q5TCY1); details: TTBK1; for remaining activity at 0.1 µM: 100 nM; for remaining activity at 0.1 µM / remaining activity at 0.5 µM: read-out: % Enzyme Activity (relative to DMSO controls)
Excerpt: as §1

[5] = molecular target: 363 human kinases (including Aurora A/B/C) (Homo sapiens, UniProt Q8IY84); details: NIM1; for remaining activity at 0.1 µM: 100 nM; for remaining activity at 0.1 µM / remaining activity at 0.5 µM: read-out: % Enzyme Activity (relative to DMSO controls)
Excerpt: as §1

[6] = molecular target: T3, 363 human kinases (including Aurora A/B/C) (Homo sapiens, UniProt Q96KB5); details: PBK/TOPK; for remaining activity at 0.1 µM: 100 nM; for remaining activity at 0.1 µM / remaining activity at 0.5 µM: read-out: % Enzyme Activity (relative to DMSO controls)
T3 sequence (Q96KB5 1-322): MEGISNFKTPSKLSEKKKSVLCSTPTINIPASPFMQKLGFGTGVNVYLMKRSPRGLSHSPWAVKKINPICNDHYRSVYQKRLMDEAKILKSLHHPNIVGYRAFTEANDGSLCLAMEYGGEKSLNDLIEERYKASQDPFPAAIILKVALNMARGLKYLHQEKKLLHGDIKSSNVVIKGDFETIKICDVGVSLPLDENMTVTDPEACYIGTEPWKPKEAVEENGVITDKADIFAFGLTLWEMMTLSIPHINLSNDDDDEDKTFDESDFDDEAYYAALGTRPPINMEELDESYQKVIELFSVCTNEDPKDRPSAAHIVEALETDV
Excerpt: as §1

[7] = molecular target: T4, 363 human kinases (including Aurora A/B/C) (Homo sapiens, UniProt Q9BXA7); details: STK22D/TSSK1; for remaining activity at 0.1 µM: 100 nM; for remaining activity at 0.1 µM / remaining activity at 0.5 µM: read-out: % Enzyme Activity (relative to DMSO controls)
T4 sequence (Q9BXA7 1-367): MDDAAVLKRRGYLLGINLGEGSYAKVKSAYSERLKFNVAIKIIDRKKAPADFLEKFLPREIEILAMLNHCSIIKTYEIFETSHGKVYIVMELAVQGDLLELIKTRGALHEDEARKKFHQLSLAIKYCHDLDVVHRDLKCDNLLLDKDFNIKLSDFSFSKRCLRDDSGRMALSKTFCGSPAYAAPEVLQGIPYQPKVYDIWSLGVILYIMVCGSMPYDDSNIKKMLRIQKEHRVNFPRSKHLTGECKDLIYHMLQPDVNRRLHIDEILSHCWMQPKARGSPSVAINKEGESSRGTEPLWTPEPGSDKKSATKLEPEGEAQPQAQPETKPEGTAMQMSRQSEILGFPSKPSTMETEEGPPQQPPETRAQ
Excerpt: as §1

[8] = read-out: % Enzyme Activity (relative to DMSO controls)

Sequence of 363 human kinases (including Aurora A/B/C) (Homo sapiens, UniProt Q5TCY1) (Q5TCY1 whole entry): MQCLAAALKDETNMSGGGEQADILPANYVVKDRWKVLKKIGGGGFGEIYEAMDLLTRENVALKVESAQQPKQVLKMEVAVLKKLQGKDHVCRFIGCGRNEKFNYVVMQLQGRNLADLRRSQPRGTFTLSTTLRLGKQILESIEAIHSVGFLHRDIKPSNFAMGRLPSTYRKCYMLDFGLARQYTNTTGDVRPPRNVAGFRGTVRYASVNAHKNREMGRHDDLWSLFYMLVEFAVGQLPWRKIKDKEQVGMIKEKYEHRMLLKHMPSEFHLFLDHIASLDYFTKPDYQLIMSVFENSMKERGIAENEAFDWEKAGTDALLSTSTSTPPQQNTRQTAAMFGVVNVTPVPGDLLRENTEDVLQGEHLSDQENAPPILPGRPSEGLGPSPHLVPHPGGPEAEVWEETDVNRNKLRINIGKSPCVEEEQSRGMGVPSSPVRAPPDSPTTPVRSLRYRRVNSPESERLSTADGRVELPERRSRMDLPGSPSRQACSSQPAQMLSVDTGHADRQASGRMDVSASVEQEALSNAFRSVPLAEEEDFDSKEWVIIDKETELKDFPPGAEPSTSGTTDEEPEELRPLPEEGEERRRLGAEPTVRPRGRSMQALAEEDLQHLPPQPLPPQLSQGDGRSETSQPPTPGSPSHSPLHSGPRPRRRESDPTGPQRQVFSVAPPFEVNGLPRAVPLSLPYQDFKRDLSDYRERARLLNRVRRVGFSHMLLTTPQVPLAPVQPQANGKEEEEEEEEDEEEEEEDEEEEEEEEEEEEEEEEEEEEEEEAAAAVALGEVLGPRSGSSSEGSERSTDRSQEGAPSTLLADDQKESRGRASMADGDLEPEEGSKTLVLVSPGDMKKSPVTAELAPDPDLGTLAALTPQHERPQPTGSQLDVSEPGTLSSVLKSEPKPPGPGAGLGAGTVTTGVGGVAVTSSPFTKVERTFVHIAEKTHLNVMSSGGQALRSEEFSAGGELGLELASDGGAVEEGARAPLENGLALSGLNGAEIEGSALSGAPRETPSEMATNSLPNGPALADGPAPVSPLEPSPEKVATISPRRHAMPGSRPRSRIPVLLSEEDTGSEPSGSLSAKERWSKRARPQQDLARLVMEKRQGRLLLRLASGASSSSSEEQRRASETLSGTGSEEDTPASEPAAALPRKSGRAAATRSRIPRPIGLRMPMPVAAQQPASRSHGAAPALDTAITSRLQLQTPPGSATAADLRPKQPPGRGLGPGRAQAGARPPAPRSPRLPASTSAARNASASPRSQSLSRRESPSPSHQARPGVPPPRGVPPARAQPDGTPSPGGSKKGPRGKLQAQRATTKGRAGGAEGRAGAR
Sequence of 363 human kinases (including Aurora A/B/C) (Homo sapiens, UniProt Q8IY84) (Q8IY84 whole entry): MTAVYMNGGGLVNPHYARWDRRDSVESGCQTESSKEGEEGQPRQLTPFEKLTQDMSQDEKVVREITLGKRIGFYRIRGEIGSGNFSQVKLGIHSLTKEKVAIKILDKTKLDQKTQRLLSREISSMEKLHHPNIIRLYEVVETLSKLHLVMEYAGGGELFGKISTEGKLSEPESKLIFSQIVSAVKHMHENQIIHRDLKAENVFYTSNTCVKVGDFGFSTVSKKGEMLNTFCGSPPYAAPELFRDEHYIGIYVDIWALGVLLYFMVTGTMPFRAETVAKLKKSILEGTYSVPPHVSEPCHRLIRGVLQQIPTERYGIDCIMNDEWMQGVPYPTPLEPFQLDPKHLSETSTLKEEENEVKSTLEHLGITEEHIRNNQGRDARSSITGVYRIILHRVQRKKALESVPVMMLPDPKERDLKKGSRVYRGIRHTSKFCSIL
Sequence of 363 human kinases (including Aurora A/B/C) (Homo sapiens, UniProt O95747) (O95747 whole entry): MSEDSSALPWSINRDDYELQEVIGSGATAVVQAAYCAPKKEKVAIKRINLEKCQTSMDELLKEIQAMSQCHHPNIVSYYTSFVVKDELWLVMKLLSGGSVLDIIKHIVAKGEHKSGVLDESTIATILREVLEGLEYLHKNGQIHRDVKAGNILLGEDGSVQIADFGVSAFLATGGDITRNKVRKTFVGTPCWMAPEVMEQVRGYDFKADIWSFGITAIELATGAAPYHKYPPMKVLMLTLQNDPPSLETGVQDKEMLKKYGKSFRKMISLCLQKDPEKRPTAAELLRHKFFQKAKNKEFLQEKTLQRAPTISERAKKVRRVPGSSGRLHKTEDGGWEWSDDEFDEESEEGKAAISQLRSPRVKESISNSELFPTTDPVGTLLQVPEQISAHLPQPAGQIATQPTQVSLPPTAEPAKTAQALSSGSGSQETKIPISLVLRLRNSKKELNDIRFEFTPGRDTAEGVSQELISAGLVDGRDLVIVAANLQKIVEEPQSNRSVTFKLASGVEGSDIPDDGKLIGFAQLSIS

For `CCn1cc(-c2ccnc3[nH]c(-c4cccc(CN(C)C)c4)cc23)c(-c2ccc(NC(=O)N(C)C)cc2)n1` [GSK1070916], which remaining activity at 0.1 µM [1] is on record?
Its remaining activity at 0.1 µM is 95.4%.

What about the remaining activity at 0.1 µM [2, 8] of the same molecule?
Its remaining activity at 0.1 µM is 95%.

What about the remaining activity at 0.1 µM [3] of the same molecule?
Its remaining activity at 0.1 µM is 81.6%.

What about the remaining activity at 0.1 µM [4] of the same molecule?
Its remaining activity at 0.1 µM is 115%.

What about the remaining activity at 0.1 µM [5] of the same molecule?
The remaining activity at 0.1 µM was 94.8%.

And the remaining activity at 0.1 µM [6]?
Its remaining activity at 0.1 µM is 97.5%.

What about the remaining activity at 0.1 µM [7] of the same molecule?
Its remaining activity at 0.1 µM is 90.1%.

With `O=C(c1cccc(Cl)c1F)N1CCN(Cc2cccc(Nc3nccs3)n2)CC1` [MK-8745] as the molecule, how does the “% Enzyme Activity (relative to DMSO controls)” value ([1]; 500 nM) read?
The value was 95.34%.

And the remaining activity at 0.5 µM ([1]; 500 nM)?
The remaining activity at 0.5 µM was 98%.

What about the “% Enzyme Activity (relative to DMSO controls)” value ([2]; 500 nM) of the same molecule?
Its value is 93.31%.

What about the remaining activity at 0.5 µM ([2]; 500 nM, read-out: % Enzyme Activity (relative to DMSO controls)) of the same molecule?
The remaining activity at 0.5 µM was 93.3%.

And the “% Enzyme Activity (relative to DMSO controls)” value ([3]; 500 nM)?
The value was 41.19%.

And the remaining activity at 0.5 µM ([3]; 500 nM)?
Its remaining activity at 0.5 µM is 41.6%.

And the “% Enzyme Activity (relative to DMSO controls)” value ([4]; 500 nM)?
Its value is 108.75%.

What about the remaining activity at 0.5 µM ([4]; 500 nM) of the same molecule?
Its remaining activity at 0.5 µM is 111%.

What about the “% Enzyme Activity (relative to DMSO controls)” value ([5]; 500 nM) of the same molecule?
The value was 97.14%.

What about the remaining activity at 0.5 µM ([5]; 500 nM) of the same molecule?
Its remaining activity at 0.5 µM is 97.2%.

And the “% Enzyme Activity (relative to DMSO controls)” value ([6]; 500 nM)?
The value was 91.24%.

What about the remaining activity at 0.5 µM ([6]; 500 nM) of the same molecule?
Its remaining activity at 0.5 µM is 94.4%.

And the “% Enzyme Activity (relative to DMSO controls)” value ([7]; 500 nM)?
Its value is 93.43%.

And the remaining activity at 0.5 µM ([7]; 500 nM)?
Its remaining activity at 0.5 µM is 93.6%.

Which results are given for `O=C(O)[C@]1(Cc2cccc(Nc3nccs3)n2)CC[C@@H](Oc2cccc(Cl)c2F)CC1` [MK-5108]?
remaining activity at 0.1 µM [1]: 99.5%; remaining activity at 0.5 µM ([1]; 500 nM): 101%; remaining activity at 0.1 µM [2, 8]: 98.9%; remaining activity at 0.1 µM [3]: 78.7%; remaining activity at 0.5 µM ([3]; 500 nM): 46.1%; remaining activity at 0.1 µM [4]: 101%; remaining activity at 0.5 µM ([4]; 500 nM): 116%; remaining activity at 0.1 µM [5]: 96.8%; remaining activity at 0.5 µM ([5]; 500 nM): 96.4%; remaining activity at 0.1 µM [6]: 93.9%; remaining activity at 0.5 µM ([6]; 500 nM): 95.4%; remaining activity at 0.1 µM [7]: 106%; remaining activity at 0.5 µM ([7]; 500 nM): 94.4%
